Source: patent US8492521B2, “Oxidative stress responsive apoptosis inducing protein eIF5A” (priority 2008, dated 2013)
Where a SMILES comes first, the peptide text is derived from it. The star is where a group is joined. Cbz = O=C(OCc1ccccc1)*; CH2F = FC*

What was measured:
cardiac myocytes [1] = experiment: Effect of PARP-1 inhibitor and caspase inhibitor on apoptosis of cardiac myocytes induced by recombinant eIF5A (RCP) (TUNEL); assay type: cell-based, rat; conditions: inhibitor added 1 hour before recombinant eIF5A (RCP), 3-aminobenzamide 2 mM, Z-VAD.fmk 100 μM, TUNEL at 72 hours
[2] = system: cultured cardiac myocytes; experiment: Induction of apoptosis of cultured cardiac myocytes by recombinant eIF5A proteins (TUNEL / cardiac myosin double staining); assay type: cell-based, rat; conditions: recombinant protein 10 μg/mL
[3] = Isoelectric point by two-dimensional gel electrophoresis and Western blotting; assay type: physicochemical; conditions: two-dimensional gel electrophoresis, tagged recombinant protein
Description: Quail muscle cells were transfected with eIF5A-myc-His vector and myc- and His-tagged recombinant eIF5A protein was collected from the cytoplasm of the transfected cells. Similarly, quail muscle cells were trasfected with the eIF5A-FLAG-His vector, the cells were incubated in hypoxia/reoxygenation-conditioned PBS (RCP), and a FLAG- and His-tagged recombinant eIF5A protein was collected from the culture supernatant. The proteins were treated with Ni-NTA Purification System (Invitrogen), and after that gel filtration was performed with phosphate buffer containing 0.15 M NaCl (pH 7.4) using Superdex 200™ 10-300GL (GE Healthcare, 1.0×30 cm, bed capacity 24 mL) to purify the myc- and FLAG-tagged recombinant eIF5A proteins. The first dimensional isoelectric focusing was performed with Immobiline DryStrip (pH 4 to 7, GE Healthcare) which had been allowed to swell overnight with a sample dissolved in 7 M urea, 2 M thiourea, 4% CHAPS, 65 mM dithioerythritol [DTE], 2% IPG buffer pH 4 to 7 (GE Healthcare) and bromophenol blue [BPB]. The electrophoresis was performed at a voltage of 30 V for 7 hours, at 60V for 7 hours, at 60 to 200 V for 30 min, at 200 to 500 V for 30 min, at 500 to 1000 V for 30 min, at 1000 to 8000 V for 30 min, and at 8000 V for 2 hours (19.4 kVh in total). The second dimensional SDS-PAGE was performed with a gel (concentrated gel 4% acrylamide, 2.6% piperazine diacrylamide [PDA], separating gel 12% acrylamide, 2.6% PDA) and the electrophoresis was performed at 12 mA for 2 hours. The gel was transferred to a PVDF membrane, and then the myc- and FLAG-tagged recombinant eIF5A proteins were analyzed by Western blotting. First, the proteins were analyzed using anti-myc monoclonal antibody (Invitrogen), biotinylated anti-mouse IgG antibody and Vectastain ABC-AP Kit (Vector) and then detected with alkaline phosphatase and chemiluminescence. Then, the proteins were analyzed using anti-FLAG monoclonal antibody (M2, Sigma) and horseradish peroxidase (HRP)-labeled anti-mouse IgG antibody and detected with Konica Immunostain HRP-1000 Kit (Konica Corporation).
(1) As thioredoxin has been known to act as antioxidant by reducing other proteins and play a protective role against oxidative stress-induced cell injury, eIF5A was considered to be a candidate of an apoptosis inducing humoral factor. eIF5A is the only protein known to contain a unique amino acid hypusine, which is formed post-translationally by two-steps of an enzymatic reaction. eIF5A has been known to be localized mainly in the cytoplasm under normal conditions where hypusinated eIF5A facilitates translation of mRNAs involved in cell proliferation. However, no study to date has reported that eIF5A can be released extracellularly and act as an apoptosis-inducing factor. To confirm that eIF5A is actually released from cardiac myocytes in response to hypoxia/reoxygenation and the released eIF5A can induce apoptosis of cardiac myocytes, quail muscle cells (CRL-1962, ATCC) were transfected with an expression vector containing the FLAG- and His-tagged human eIF5A gene, incubated with hypoxic PBS, and then incubated with normoxic PBS. The reoxygenation-conditioned PBS (RCP) was collected, concentrated, and purified using Ni-NTA Purification System (Invitrogen), and recombinant protein ([RCP] re-eIF5A) was extracted by gel filtration. (2) Similarly, recombinant human eIF5A ([cytosolic] re-eIF5A) was extracted from cytosolic fractions of the untreated transfected cells. (3) After these recombinant eIF5A proteins were separated by two-dimensional electrophoresis, the resultant was analyzed by Western blotting with anti-FLAG M2 mAb (Sigma) (FIG. 2b). […] Specifically, spots having higher pI values, such as hypusinated eIF5A (spots B and B′ in FIG. 2b), and spots having lower pI values, such as unhypusinated eIF5A (spots A and A′ in FIG. 2b) were identified. There was no detectable spots of deoxyhypusinated intermediate (references Taylor, C. A., et al. Exp. Cell Res. 313, 437-449). […]

[4] = system: cultured cardiac myocytes; experiment: Activation of caspase-3 (Western blot); assay type: cell-based, rat; conditions: peak at 48 hours
cardiac myocytes [5] = experiment: Electron microscopy of nuclear chromatin in cardiac myocytes; assay type: cell-based, rat
Description: The cardiac myocytes were treated with recombinant eIF5A for a predetermined period. The cells were fixed in 2% glutaraldehyde, postfixed in 2% osmium tetraoxide, dehydrated in ethanol, and embedded in a resin. Ultrathin section were prepared, stained with uranyl acetate and lead citrate, and examined with an electron microscope (H-7000, HITACHI, Japan).

[6] = system: Quail muscle cells (ATCC; CRL-1962); experiment: Apoptosis induction by recombinant eIF5A (TUNEL), quail muscle cells; assay type: cell-based; conditions: 10 μg/ml, normal cells, up to 72 hours
Description: (§1) Quail muscle cells (ATCC; CRL-1962), HeLa cells, human hepatocellular carcinoma cells (ATCC; HB-8064), and human glioblastoma cells (ATCC; CRL-1690) were incubated on a culture slide (BD Falcon) until they were confluent. These cells were treated with a recombinant eIF5A (10 μg/ml) for a predetermined time and fixed. Terminal deoxynucleotidyl transferase nick-end-labeled (TUNEL) staining was performed in situ with an Apoptosis Detection Kit (Takara Bio Inc.).

[7] = system: cultured cardiac myocytes; experiment: Annexin V staining of cultured cardiac myocytes; assay type: cell-based, rat
Description: Cardiac myocytes were treated with a recombinant eIF5A (RCP) for a predetermined time. The cells were incubated with biotinylated-annexin V in 1× binding buffer (Annexin V-Biotin Apoptosis Detection Kit, BioVision Inc.) for 5 min and then fixed with 2% paraformaldehyde in PBS for 15 min. After washing in PBS, the cells were incubated with streptavidin-horseradish peroxidase (Vector) for 30 min. The subsequent procedures for immunofluorescence by TSA technology were the same as for AIF. To distinguish cardiac myocytes from non-muscle cells, cells were further incubated with mouse anti-cardiac myosin (clone CMA19) mAb (Non Patent Literature 1), followed by incubation with tetramethyl rhodamine isothiocyanate (TRITC)-conjugated anti-mouse IgG antibody, and then photographed in a fluorescence microscope.

[8] = system: human hepatocellular carcinoma cells (ATCC; HB-8064); experiment: Apoptosis induction by recombinant eIF5A (TUNEL), hepatocellular carcinoma cells; assay type: cell-based; conditions: 10 μg/ml, 30 to 36 hours
Description: as §1

[9] = system: cultured cardiac myocytes; experiment: Release of cytochrome c from mitochondria (Western blot of cytosolic fraction); assay type: cell-based, rat; conditions: peak at 48 hours
Description: Cultured cardiac myocytes were treated with a recombinant eIF5A for a predetermined time. Nucleic, mitochondrial, and cytosolic fraction of the cells were prepared as described in Non Patent Literatures 1 and 2. Briefly, 3×10^6 cells were washed in PBS, and suspended in 250 μl of a lysis buffer (250 mM sucrose, 50 mM Pipes/KOH, pH7.4, 50 mM KCl, 5 mM EGTA, 2 mM MgCl2, 1 mM DTT, and 1 mM PMSF). After 30 min on ice, the cells were lysed with 40 strokes using pestle B in a Dounce homogenizer, and centrifuged at 80 g for 10 min. The pellets were collected as the nucleic fraction. Then, the supernatants were prepared from cell lysates by centrifugation at 20,000 g for 20 min. The pellets were collected as the mitochondrial fraction, and the supernatants were regarded as the cytosolic fraction. The nucleic, mitochondrial, and cytosolic fractions were subjected to Western blot analysis with rabbit anti-AIF mAb (E20; Epitomics Inc., CA, USA) or mouse anti-cytochrome c mAb (7H, 8.2; C12; Lab Vision Corp., CA, USA). The antibody-antigen complexes were developed with a chemiluminescence system using alkalinephosphatase (New England Biolabs, Inc.).

Hela cells = experiment: Apoptosis induction by recombinant eIF5A (TUNEL), HeLa cells; assay type: cell-based, human; conditions: 10 μg/ml, 30 to 36 hours
Description: as §1

[10] = system: cultured cardiac myocytes; experiment: Subcellular translocation of apoptosis-inducing factor (AIF) in cultured cardiac myocytes; assay type: cell-based, rat; conditions: double staining for AIF and Hoechst 33342
Description: Tyramide Signal Amplification (TSA) technology was used for fluorescence (TSA™ Biotin System, NEN Life Science Products, PerkinElmer; according to the manufacture's instruction). Cardiac myocytes were treated with a recombinant eIF5A (RCP) for a predetermined time and fixed with 4% paraformaldehyde in PBS for 15 min. The cells were washed with PBS and then incubated with rabbit anti-AIF mAb (E20; Epitomics Inc.) for 1 hour. The cells were washed, then incubated with biotinylated anti-rabbit IgG antibody (Chemicon International, Inc.) for 1 hour, washed, and incubated with streptavidin-horseradish peroxidase (Vector) for 30 min. The cells were washed in TNT buffer (0.1 M Tris-HCl, pH 7.5, 0.15 M NaCl, 0.05% Tween 20) and then incubated with biotinylated-tyramide for appropriate time (3 to 10 min). The cells were washed in TNT buffer and then incubated with FITC-labeled avidin-D (Vector) for 30 min. Nuclei were stained with 1 μg·mL^−1 Hoechst 33342 (DOJINDO Laboratories, Kumamoto, Japan). Confocal laser microscopy was performed on LSM510 Laser Scanning Microscope (Zeiss).

[11] = system: human glioblastoma cells (ATCC; CRL-1690); experiment: Apoptosis induction by recombinant eIF5A (TUNEL), glioblastoma cells; assay type: cell-based; conditions: 10 μg/ml, 30 to 36 hours
Description: as §1

NC(=O)c1cccc(N)c1 [3-aminobenzamide]
inhibition at 2000 µM (cardiac myocytes [1]; Rattus norvegicus, read-out: inhibition of apoptosis induction by recombinant eIF5A (RCP)): ~30%

COC(=O)C[C@H](NC(=O)[C@H](C)NC(=O)[C@@H](NC(=O)OCc1ccccc1)C(C)C)C(=O)CF [Z-VAD.fmk] (Cbz-Val-Ala-Asp(OMe)-CH2F)
inhibition of apoptosis induction by recombinant eIF5A (RCP) (cardiac myocytes [1]): ~70%

cytosolic (mostly unhypusinated) eIF5A: recombinant human eIF5A extracted from cytosolic fractions of untreated transfected cells [reference compound]
induction of apoptosis of cultured cardiac myocytes (TUNEL and cardiac myosin double staining) [2]: almost no cardiac myocytes underwent apoptosis

cytosolic hypusinated eIF5A: hypusinated form of conventionally known cytosolic eIF5A, spot B in two-dimensional electrophoresis [reference compound]
isoelectric point [3]: approx. 5.5 | isoelectric point ([3]; listed as spot B): 5.5

cytosolic unhypusinated eIF5A: unhypusinated form of conventionally known cytosolic eIF5A, spot A in two-dimensional electrophoresis [reference compound]
isoelectric point [3]: approx. 5.4 | isoelectric point ([3]; listed as spot A): 5.4

recombinant eIF5A (RCP): FLAG- and His-tagged human eIF5A collected from reoxygenation-conditioned PBS of transfected quail muscle cells; secreted form
active form of caspase-3 [4]: markedly increased | nuclear chromatin by electron microscopy (cardiac myocytes [5]): hypercondensation of nuclear chromatins | induction of apoptosis (TUNEL staining) [6]: not induced until 72 hours | induction of apoptosis by Annexin-V staining [7]: further confirmed | induction of apoptosis (TUNEL staining) [8]: induced apoptosis | cytosolic fractions of cytochrome c [9]: markedly increased | induction of apoptosis (TUNEL staining) (Hela cells): induced apoptosis | induction of apoptosis of cultured cardiac myocytes (TUNEL and cardiac myosin double staining) [2]: potently induced apoptosis | translocation of the apoptosis-inducing factor (AIF) from the cytosol (mitochondria) to the nucleus [10]: induced translocation | induction of apoptosis (TUNEL staining) [11]: induced apoptosis

recombinant mutant eIF5A (K50A) derived from RCP: K50A mutant eIF5A secreted into reoxygenation-conditioned PBS by transfected quail muscle cells
induction of apoptosis of cultured cardiac myocytes (TUNEL and cardiac myosin double staining) [2]: only partially induced apoptosis

secreted hypusinated eIF5A: hypusinated form of secreted eIF5A from RCP, spot B′
isoelectric point [3]: approx. 5.4 | isoelectric point ([3]; listed as spot B′): 5.4

secreted unhypusinated eIF5: unhypusinated form of secreted eIF5A from RCP, spot A′
isoelectric point [3]: approx. 5.3 | isoelectric point ([3]; listed as spot A′): 5.3
